According to patent publication US20050009840A1 (SUGEN, INC., priority 2003, published 2005):

biological target: T1, HGFR (Homo sapiens, UniProt P08581); assay: HGFR continuous-coupled spectrophotometric assay; format: biochemical; settings: at 1 pM; Table 7, library procedure 42; read-out: % Inhibition (percent c-MET inhibition)
T1 construct: purchased Upstate 14-526
T1 sequence (P08581 974-1390 limits assumed): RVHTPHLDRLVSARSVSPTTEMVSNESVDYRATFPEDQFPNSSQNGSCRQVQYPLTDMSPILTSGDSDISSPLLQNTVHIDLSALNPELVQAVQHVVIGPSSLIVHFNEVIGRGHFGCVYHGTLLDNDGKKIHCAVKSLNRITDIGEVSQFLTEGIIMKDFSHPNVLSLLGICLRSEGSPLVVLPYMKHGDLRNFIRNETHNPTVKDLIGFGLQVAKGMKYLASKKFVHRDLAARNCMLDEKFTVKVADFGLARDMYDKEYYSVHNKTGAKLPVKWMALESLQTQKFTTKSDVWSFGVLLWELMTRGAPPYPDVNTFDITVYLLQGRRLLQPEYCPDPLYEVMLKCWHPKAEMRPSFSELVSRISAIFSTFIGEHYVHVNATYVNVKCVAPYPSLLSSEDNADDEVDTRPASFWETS

In order of rising inhibition at 1 pM:
1. Nc1ncc(-c2ccc(C(=O)N3CCC(N4CCCC4)CC3)cc2)cc1OCc1nc(-c2ccccc2)n[nH]1  -2%
2. Nc1ncc(-c2ccc(C(=O)N3CCC(N4CCCC4)CC3)cc2)cc1OCc1nc2ccccc2[nH]1  4%
3. Nc1ncc(-c2ccc(C(=O)N3CCC(N4CCCC4)CC3)cc2)cc1OCc1nsc(Cl)n1  5%
4. Cn1nc(-c2ccccc2)nc1COc1cc(-c2ccc(C(=O)N3CCC(N4CCCC4)CC3)cc2)cnc1N  5%
5. Cn1nc(C2CC2)nc1COc1cc(-c2ccc(C(=O)N3CCC(N4CCCC4)CC3)cc2)cnc1N  5%
6. CCc1nc(COc2cc(-c3ccc(C(=O)N4CCC(N5CCCC5)CC4)cc3)cnc2N)no1  5%
7. Nc1ncc(-c2ccc(C(=O)N3CCC(N4CCCC4)CC3)cc2)cc1OCc1nc(NC2CC2)c2ccccc2n1  6%
8. Nc1ncc(-c2ccc(C(=O)N3CCC(N4CCCC4)CC3)cc2)cc1OCc1nc(NCCO)c2ccccc2n1  7%
9. Nc1ncc(-c2ccc(C(=O)N3CCC(N4CCCC4)CC3)cc2)cc1OCc1nccn1Cc1ccccc1  8%
10. N#Cc1ccc(COc2cc(-c3ccc(C(=O)N4CCC(N5CCCC5)CC4)cc3)cnc2N)cc1  8%
11. CCOC(=O)c1nc(COc2cc(-c3ccc(C(=O)N4CCC(N5CCCC5)CC4)cc3)cnc2N)no1  8%
12. Nc1ncc(-c2ccc(C(=O)N3CCC(N4CCCC4)CC3)cc2)cc1OCc1ncccn1  9%
13. CCc1ccn2cc(COc3cc(-c4ccc(C(=O)N5CCC(N6CCCC6)CC5)cc4)cnc3N)nc2c1  9%
14. Nc1nc(COc2cc(-c3ccc(C(=O)N4CCC(N5CCCC5)CC4)cc3)cnc2N)nc(Nc2ccccc2)n1  9%
15. Cc1noc(C)c1COc1cc(-c2ccc(C(=O)N3CCC(N4CCCC4)CC3)cc2)cnc1N  10%
16. Nc1ncc(-c2ccc(C(=O)N3CCC(N4CCCC4)CC3)cc2)cc1OCc1ccncc1  10%
17. Cc1ccnc2nc(COc3cc(-c4ccc(C(=O)N5CCC(N6CCCC6)CC5)cc4)cnc3N)cn12  10%
18. Cc1cnccc1COc1cc(-c2ccc(C(=O)N3CCC(N4CCCC4)CC3)cc2)cnc1N  11%
19. CNC(=O)c1ccc(OC)c(-c2noc(COc3cc(-c4ccc(C(=O)N5CCC(N6CCCC6)CC5)cc4)cnc3N)n2)c1  11%
20. Nc1ncc(-c2ccc(C(=O)N3CCC(N4CCCC4)CC3)cc2)cc1OCc1nc(-c2ccc(C(=O)N3CCCC3)cc2)no1  11%
21. N#Cc1cccc(COc2cc(-c3ccc(C(=O)N4CCC(N5CCCC5)CC4)cc3)cnc2N)c1  12%
22. CC(C)Cc1noc(COc2cc(-c3ccc(C(=O)N4CCC(N5CCCC5)CC4)cc3)cnc2N)n1  12%
23. Nc1ncc(-c2ccc(C(=O)N3CCC(N4CCCC4)CC3)cc2)cc1OCc1noc(-c2ccccc2)n1  16%
24. Nc1ncc(-c2ccc(C(=O)N3CCC(N4CCCC4)CC3)cc2)cc1OCc1ccc(F)cc1F  18%
25. CC(C)NC(=O)c1ccc(-c2noc(COc3cc(-c4ccc(C(=O)N5CCC(N6CCCC6)CC5)cc4)cnc3N)n2)cc1  18%
26. Nc1ncc(-c2ccc(C(=O)N3CCC(N4CCCC4)CC3)cc2)cc1OCc1ccc(Cl)s1  19%
27. COc1ccc(OC)c(COc2cc(-c3ccc(C(=O)N4CCC(N5CCCC5)CC4)cc3)cnc2N)c1  19%
28. Nc1ncc(-c2ccc(C(=O)N3CCC(N4CCCC4)CC3)cc2)cc1OCC1=C(Cl)SNN1  19%
29. Nc1ncc(-c2ccc(C(=O)N3CCC(N4CCCC4)CC3)cc2)cc1OCc1ccc2ccccc2c1  27%
30. Nc1ncc(-c2ccc(C(=O)N3CCC(N4CCCC4)CC3)cc2)cc1OCc1ccc(Cl)cc1Br  28%
31. Nc1ncc(-c2ccc(C(=O)N3CCC(N4CCCC4)CC3)cc2)cc1OCc1ccc(OCc2ccccc2)cc1  49%
32. Nc1ncc(-c2ccc(C(=O)N3CCC(N4CCCC4)CC3)cc2)cc1OCc1nc(-c2cccc(C(=O)Nc3ccc(F)cc3)c2)no1  64%

same assay, conditions: at 1 μM; Table 8, library procedure 43; read-out: % Inhibition (percent c-MET inhibition)

In order of falling inhibition at 1 µM:
1. CC1CN(C(=O)c2ccc(-c3cnc(N)c(OCc4ccc5ccccc5c4Br)c3)cc2)CC(C)N1 (stereo not shown)  58%
2. CC1CN(C(=O)c2ccc(-c3cnc(N)c(OCc4c(F)ccc(F)c4Cl)c3)cc2)CC(C)N1 (stereo not shown)  51%
3. Cc1ccc(COc2cc(-c3ccc(C(=O)N4CC(C)NC(C)C4)cc3)cnc2N)c(F)c1F (stereo not shown)  37%
4. CC1CN(C(=O)c2ccc(-c3cnc(N)c(OCc4ccc(C(=O)c5ccccc5)cc4)c3)cc2)CC(C)N1 (stereo not shown)  35%
5. CC1CN(C(=O)c2ccc(-c3cnc(N)c(OCc4cccc(C(=O)Nc5ccc(N6CCCCC6)cc5)c4)c3)cc2)CC(C)N1 (stereo not shown)  28%
6. CC1CN(C(=O)c2ccc(-c3cnc(N)c(OCc4cc(F)ccc4F)c3)cc2)CC(C)N1 (stereo not shown)  25%
7. CC1CN(C(=O)c2ccc(-c3cnc(N)c(OCc4cc(C(F)(F)F)ccc4Cl)c3)cc2)CC(C)N1 (stereo not shown)  25%
8. Cc1cc(-c2onc(C)c2COc2cc(-c3ccc(C(=O)N4CC(C)NC(C)C4)cc3)cnc2N)no1 (stereo not shown)  25%
9. CC1CN(C(=O)c2ccc(-c3cnc(N)c(OCc4ccc(F)cc4F)c3)cc2)CC(C)N1 (stereo not shown)  20%
10. CC1CN(C(=O)c2ccc(-c3cnc(N)c(OCc4ccccc4OC(F)(F)F)c3)cc2)CC(C)N1 (stereo not shown)  20%
11. CC1CN(C(=O)c2ccc(-c3cnc(N)c(OCc4ccc(C(=O)NC5CCN(Cc6ccccc6)C5)cc4)c3)cc2)CC(C)N1 (stereo not shown)  19%
12. CC1CN(C(=O)c2ccc(-c3cnc(N)c(OCc4cccc(-c5ccnc(Br)n5)c4)c3)cc2)CC(C)N1 (stereo not shown)  19%
13. CC1CN(C(=O)c2ccc(-c3cnc(N)c(OCc4ccc5nc(C(F)(F)F)cc(OC(C)C)c5c4)c3)cc2)CC(C)N1 (stereo not shown)  17%
14. CC1CN(C(=O)c2ccc(-c3cnc(N)c(OCc4ccc(C(F)(F)F)c(F)c4)c3)cc2)CC(C)N1 (stereo not shown)  17%
15. CC1CN(C(=O)c2ccc(-c3cnc(N)c(OCc4cc(F)ccc4C(F)(F)F)c3)cc2)CC(C)N1 (stereo not shown)  17%
16. CC1CN(C(=O)c2ccc(-c3cnc(N)c(OCc4ccc(-c5ccnc(Br)n5)cc4)c3)cc2)CC(C)N1 (stereo not shown)  17%
17. CC1CN(C(=O)c2ccc(-c3cnc(N)c(OCc4ccc(S(N)(=O)=O)cc4)c3)cc2)CC(C)N1 (stereo not shown)  16%
18. CC1CN(C(=O)c2ccc(-c3cnc(N)c(OCc4nc5ccccc5n4C)c3)cc2)CC(C)N1 (stereo not shown)  16%
19. CC1CN(C(=O)c2ccc(-c3cnc(N)c(OCc4nc(-c5ccccn5)no4)c3)cc2)CC(C)N1 (stereo not shown)  15%
20. CC1CN(C(=O)c2ccc(-c3cnc(N)c(OCc4ccc(F)c(F)c4)c3)cc2)CC(C)N1 (stereo not shown)  14%
21. CCOC(=O)CCNC(=O)c1cccc(COc2cc(-c3ccc(C(=O)N4CC(C)NC(C)C4)cc3)cnc2N)c1 (stereo not shown)  14%
22. CC1CN(C(=O)c2ccc(-c3cnc(N)c(OCc4ccc(S(=O)(=O)Nc5ccc(F)cc5)cc4)c3)cc2)CC(C)N1 (stereo not shown)  14%
23. CC1CN(C(=O)c2ccc(-c3cnc(N)c(OCc4ccc(S(=O)(=O)N5CCOCC5)cc4)c3)cc2)CC(C)N1 (stereo not shown)  13%
24. CC1CN(C(=O)c2ccc(-c3cnc(N)c(OCc4ccc(S(=O)(=O)c5ccc(F)cc5)cc4)c3)cc2)CC(C)N1 (stereo not shown)  13%
25. CCOC(=O)C1CCN(C(=O)c2ccc(COc3cc(-c4ccc(C(=O)N5CC(C)NC(C)C5)cc4)cnc3N)cc2)CC1 (stereo not shown)  12%
26. CC1CN(C(=O)c2ccc(-c3cnc(N)c(OCc4ccc(C(=O)NCc5cccnc5)cc4)c3)cc2)CC(C)N1 (stereo not shown)  8%
